# Reference: PubChem BioAssay (NCI)
#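 GI50: concentration for 50% inhibition of growth. Definition used: TGI = concentration required for complete inhibition of growth.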
# Tests used:
# Assay in all cases: NCI-60 cell line screen, 384-well format
# OVCAR-8 ovarian = system: OVCAR-8 ovarian
# KM12 colon = system: KM12 colon
# HCC-2998 colon = system: HCC-2998 colon
# SF-268 CNS = system: SF-268 CNS
# SR leukemia = system: SR leukemia
# MALME-3M melanoma = system: MALME-3M melanoma
# K-562 leukemia = system: K-562 leukemia
# SW-620 colon = system: SW-620 colon
# HOP-92 NSCLC = system: HOP-92 NSCLC
# HCT-15 colon = system: HCT-15 colon
# NCI-H460 NSCLC = system: NCI-H460 NSCLC
# UACC-62 melanoma = system: UACC-62 melanoma
# CAKI-1 renal = system: CAKI-1 renal
# MDA-MB-468 breast = system: MDA-MB-468 breast
# BT-549 breast = system: BT-549 breast
# PC-3 prostate = system: PC-3 prostate
# HL-60(TB) leukemia = system: HL-60(TB) leukemia
# NCI-H522 lung = system: NCI-H522 lung
# U251 glioblastoma = system: U251 glioblastoma
# 786-0 renal = system: 786-0 renal
# SK-MEL-5 melanoma = system: SK-MEL-5 melanoma
# HOP-62 NSCLC = system: HOP-62 NSCLC
# ACHN renal = system: ACHN renal
# HS 578T breast = system: HS 578T breast
# NCI-H226 lung = system: NCI-H226 lung
# DU-145 prostate = system: DU-145 prostate
# A549 NSCLC = system: A549 NSCLC
# UO-31 renal = system: UO-31 renal
# NCI-H322M lung = system: NCI-H322M lung
# IGROV1 ovarian = system: IGROV1 ovarian
# HT29 colon = system: HT29 colon
# SF-539 CNS = system: SF-539 CNS
# SNB-75 CNS = system: SNB-75 CNS
# SN12C renal = system: SN12C renal
# SK-MEL-2 melanoma = system: SK-MEL-2 melanoma
# HCT-116 colon = system: HCT-116 colon
# SF-295 CNS = system: SF-295 CNS
# UACC-257 melanoma = system: UACC-257 melanoma
# SNB-19 CNS = system: SNB-19 CNS
# RPMI-8226 leukemia = system: RPMI-8226 leukemia
# LOX IMVI melanoma = system: LOX IMVI melanoma
# MOLT-4 leukemia = system: MOLT-4 leukemia
# EKVX NSCLC = system: EKVX NSCLC
# SK-MEL-28 melanoma = system: SK-MEL-28 melanoma
# A498 renal = system: A498 renal
# MDA-MB-435 melanoma = system: MDA-MB-435 melanoma
# NCI/ADR-RES ovarian = system: NCI/ADR-RES ovarian
# OVCAR-4 ovarian = system: OVCAR-4 ovarian
# NCI-H23 lung = system: NCI-H23 lung
# SK-OV-3 ovarian = system: SK-OV-3 ovarian
# OVCAR-5 ovarian = system: OVCAR-5 ovarian
# TK-10 renal = system: TK-10 renal
# T-47D breast = system: T-47D breast
# M14 melanoma = system: M14 melanoma
# MCF7 breast = system: MCF7 breast
# MDA-MB-231 breast = system: MDA-MB-231 breast
smiles,measurement,setting,value
Cc1cnc(-c2ccc(-c3ccc(NC(=O)Nc4c(F)cc(F)cc4F)cc3F)c3c2C(=O)NC3)[nH]1,GI50,OVCAR-8 ovarian,1090 nM
same,TGI,OVCAR-8 ovarian,2340 nM
same,GI50,KM12 colon,< 10 nM
same,TGI,KM12 colon,1140 nM
same,GI50,HCC-2998 colon,1270 nM
same,TGI,HCC-2998 colon,2690 nM
same,GI50,SF-268 CNS,277 nM
same,TGI,SF-268 CNS,1500 nM
same,GI50,SR leukemia,< 10 nM
same,GI50,MALME-3M melanoma,52.2 nM
same,TGI,MALME-3M melanoma,727 nM
same,GI50,K-562 leukemia,227 nM
same,TGI,K-562 leukemia,1350 nM
same,GI50,SW-620 colon,234 nM
same,TGI,SW-620 colon,1310 nM
same,GI50,HOP-92 NSCLC,1460 nM
same,TGI,HOP-92 NSCLC,2790 nM
same,GI50,HCT-15 colon,748 nM
same,TGI,HCT-15 colon,13100 nM
same,GI50,NCI-H460 NSCLC,< 10 nM
same,TGI,NCI-H460 NSCLC,201 nM
same,GI50,UACC-62 melanoma,219 nM
same,TGI,UACC-62 melanoma,1340 nM
same,GI50,CAKI-1 renal,1080 nM
same,TGI,CAKI-1 renal,2320 nM
same,GI50,MDA-MB-468 breast,< 10 nM
same,TGI,MDA-MB-468 breast,434 nM
same,GI50,BT-549 breast,214 nM
same,TGI,BT-549 breast,981 nM
same,GI50,PC-3 prostate,1190 nM
same,TGI,PC-3 prostate,2440 nM
same,GI50,HL-60(TB) leukemia,< 10 nM
same,TGI,HL-60(TB) leukemia,121 nM
same,GI50,NCI-H522 lung,1140 nM
same,TGI,NCI-H522 lung,2400 nM
same,GI50,U251 glioblastoma,623 nM
same,TGI,U251 glioblastoma,1960 nM
same,GI50,786-0 renal,575 nM
same,TGI,786-0 renal,1890 nM
same,GI50,SK-MEL-5 melanoma,367 nM
same,TGI,SK-MEL-5 melanoma,1520 nM
same,GI50,HOP-62 NSCLC,227 nM
same,TGI,HOP-62 NSCLC,1270 nM
same,GI50,ACHN renal,957 nM
same,TGI,ACHN renal,4520 nM
same,GI50,HS 578T breast,232 nM
same,TGI,HS 578T breast,653 nM
same,GI50,NCI-H226 lung,1360 nM
same,TGI,NCI-H226 lung,2740 nM
same,GI50,DU-145 prostate,463 nM
same,TGI,DU-145 prostate,1880 nM
same,GI50,A549 NSCLC,616 nM
same,TGI,A549 NSCLC,2150 nM
same,GI50,UO-31 renal,161 nM
same,TGI,UO-31 renal,7350 nM
same,GI50,NCI-H322M lung,1300 nM
same,TGI,NCI-H322M lung,3110 nM
same,GI50,IGROV1 ovarian,1300 nM
same,TGI,IGROV1 ovarian,6510 nM
same,GI50,HT29 colon,1060 nM
same,TGI,HT29 colon,2270 nM
same,GI50,SF-539 CNS,305 nM
same,TGI,SF-539 CNS,1870 nM
same,GI50,SNB-75 CNS,340 nM
same,TGI,SNB-75 CNS,897 nM
same,GI50,SN12C renal,462 nM
same,TGI,SN12C renal,2000 nM
same,GI50,SK-MEL-2 melanoma,395 nM
same,TGI,SK-MEL-2 melanoma,1470 nM
same,GI50,HCT-116 colon,153 nM
same,TGI,HCT-116 colon,1680 nM
same,GI50,SF-295 CNS,1120 nM
same,TGI,SF-295 CNS,2420 nM
same,GI50,UACC-257 melanoma,856 nM
same,TGI,UACC-257 melanoma,2140 nM
same,GI50,SNB-19 CNS,1250 nM
same,TGI,SNB-19 CNS,2620 nM
same,GI50,RPMI-8226 leukemia,19.1 nM
same,TGI,RPMI-8226 leukemia,386 nM
same,GI50,LOX IMVI melanoma,345 nM
same,TGI,LOX IMVI melanoma,1690 nM
same,GI50,MOLT-4 leukemia,< 10 nM
same,GI50,EKVX NSCLC,816 nM
same,TGI,EKVX NSCLC,3570 nM
same,GI50,SK-MEL-28 melanoma,633 nM
same,TGI,SK-MEL-28 melanoma,2090 nM
same,GI50,A498 renal,165 nM
same,TGI,A498 renal,1160 nM
same,GI50,MDA-MB-435 melanoma,397 nM
same,TGI,MDA-MB-435 melanoma,1760 nM
same,GI50,NCI/ADR-RES ovarian,> 100000 nM
same,TGI,NCI/ADR-RES ovarian,> 100000 nM
same,GI50,OVCAR-4 ovarian,196 nM
same,TGI,OVCAR-4 ovarian,452 nM
same,GI50,NCI-H23 lung,450 nM
same,TGI,NCI-H23 lung,1700 nM
same,GI50,SK-OV-3 ovarian,341 nM
same,TGI,SK-OV-3 ovarian,1530 nM
same,GI50,OVCAR-5 ovarian,1240 nM
same,TGI,OVCAR-5 ovarian,2870 nM
same,GI50,TK-10 renal,1130 nM
same,TGI,TK-10 renal,2420 nM
same,GI50,T-47D breast,1600 nM
same,TGI,T-47D breast,3000 nM
same,GI50,M14 melanoma,157 nM
same,TGI,M14 melanoma,1230 nM
same,GI50,MCF7 breast,324 nM
same,TGI,MCF7 breast,1490 nM
same,GI50,MDA-MB-231 breast,1030 nM
same,TGI,MDA-MB-231 breast,2350 nM
